Source: patent publication US11498928B2, “Macrocyclic spiroethers as Mcl-1 inhibitors” (ASCENTAGE PHARMA (SUZHOU) CO., LTD., priority 2019, dated 2022)

How the values were obtained:
[1] = target: T1, Mcl-1 protein (residues 171-323) (Homo sapiens, UniProt Q07820); assay: Inhibition of Mcl-1 by fluorescence polarization (FP) competitive binding assay with FAM-Bid tracer; settings: 2 nM FAM-Bid, 20 nM Mcl-1, 30 min
T1 construct: Tag-free Mcl-1 protein (residues 171-323) was used in the FP assay
Experimental: Inhibition of Mcl-1 by Fluorescence Polarization (FP) Assay.
The relative binding potency of representative Compounds of the Disclosure was determined by a fluorescence polarization (FP) assay (Long et al, BMC Biotechnology 13:45 (2013)). The method used a fluorescein labelled peptide (FAM-Bid) which binds to the Mcl-1 protein leading to an increased anisotropy measured in milli-polarization (mP) values using a plate reader. […] Tag-free Mcl-1 protein (residues 171-323) was used in the FP assay (Mady et al, Scientific Reports 8: 10210-10210 (2018); Yang et al, ACS Med. Chem. Lett. 3:308-312 (2012)).
A 10-points serial dilution of each compound was prepared in DMSO and 5 μL solution was transferred into flat bottomed, 96-well back plate (final DMSO concentration 5%). 120 μL of Buffer (PBS, 0.01% BGG (Sigma Cat. #SRE0011), 0.01% Triton X-100), containing the Fluorescein labelled peptide (Final concentration 2 nM) and Mcl-1 protein (final concentration 20 nM) was then added. Assay plates were incubated 30 mins at room temperature with gentle shaking before FP was measured on a Biotek Synergy 1MF reader (Ex. 485 nm, Em. 528 nm, Cut off 510 nm) and mP calculated. The binding of increasing doses of test compounds was expressed as a percentage reduction in mP compared to a window established between 5% DMSO only and 100% inhibition controls (no Mcl-1 protein). 10-points dose response curves were plotted with GraphPad software using Sigmoidal Dose-Response Model and the IC50 values were determined by nonlinear regression fitting of the competition curves. Cell Viability Assay (NCI-H929 cells)

[2] = tested on: OPM-2 cells; assay: Cell viability assay (OPM-2 cells), CCK-8; type: cell-based; settings: 5% FBS
Experimental: OPM-2 cells were obtained from Deutsche Sammlung von Mikroorganismen and Zellkulturen GmbH (DSMZ). Cells were maintained in the recommended culture medium with 10% FBS at 37° C. and an atmosphere of 5% CO2.
The effect of representative Compounds of the Disclosure on cell viability was determined using Cell Counting Kit-8 (CCK-8) assay (Shanghai Life iLab Bio Technology) according to the manufacturer's instructions. Each tested compound was serially diluted in culture medium, 100 μL of the compound dilution was added into 96-well plates. 100 μL of an OPM-2 cell suspension (20000 cells/well) in culture medium were seeded into the corresponding well of the plate and the cells were incubated at 37° C. in an atmosphere of 5% CO2 for 24 hours. In the next day, 20 μL of CCK-8 solution was added to each well of the plate and incubated for 4 hours.
The plates were read at 450 nm on the microplate spectrophotometer (SpectraMax plus 384, Molecular devices). The readings were normalized to the vehicle cells, and the IC50 was calculated by nonlinear regression analysis using GraphPad Prism 6 software.

[3] = tested on: NCI-H929 cells; assay: Cell viability assay (NCI-H929 cells), CCK-8; type: cell-based; settings: 5% FBS
Experimental: NCI-H929 cells were obtained from American Type Culture Collection (ATCC). Cells were maintained in the recommended culture medium (RPMI 1640) with 10% FBS and 0.05 mM BME at 37° C. and an atmosphere of 5% CO2.
The effect of Compounds on cell viability was determined using Cell Counting Kit-8 (CCK-8) assay according to the manufacturer's instructions. 95 μL of NCI-H929 cell suspension (20000 cells/well) in culture medium were seeded into 96-well plates and cultured 4 hrs. Each tested compound was serially diluted in DMSO, then 5 μL of the compound or DMSO was diluted in 95 μL medium once more. At last, 5 μL of the compound dilution was added to the corresponding well of the cell plate. After the addition of the tested compound, the cells were incubated at 37° C. in an atmosphere of 5% CO2 for 24 hrs. At the end, 10 μL of CCK-8 solution was added to each well of the plate and incubated for 1-4 hours. The plates were read at 450 nm on the microplate reader (BioTek Synergy 1MF). The readings were normalized to the vehicle cells, and the IC50 was calculated by nonlinear regression analysis using GraphPad Prism 6 software. Cell Viability Assay (OPM-2 cells)

T1 sequence (Q07820 171-323): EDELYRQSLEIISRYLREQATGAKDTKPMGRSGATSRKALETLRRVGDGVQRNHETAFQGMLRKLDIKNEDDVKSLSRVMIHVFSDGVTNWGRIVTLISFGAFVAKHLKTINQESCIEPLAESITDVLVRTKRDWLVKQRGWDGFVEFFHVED

Compound	IC50 [1] [nM]	IC50 ([2]; 24 h) [nM]	IC50 ([3]; 24 h) [nM]	IC50 ([2]; Homo sapiens, OPM-2, 24 h) [nM]	IC50 ([3]; Homo sapiens, NCI-H929, 24 h) [nM]
CC[C@@H]1CS(=O)(=O)NC(=O)c2ccc3c(c2)N(C[C@@H]2CC[C@H]2[C@@H](OC)C2=CC1C2)C[C@@]1(CCCc2cc(Cl)ccc21)CO3 (single isomer, unassigned) [Cpd. No. 10 (Isomer 2)]	4.9	1130	780	–	–
C[C@@H]1[C@@H](C)S(=O)(=O)NC(=O)c2ccc3c(c2)N(C[C@@H]2CC[C@H]2[C@@H](OCC(=O)N2CCN(C)CC2)C2=C[C@H]1C2)C[C@@]1(CCCc2c1ccc(Cl)c2F)CO3 [compound 70, (1S,11′R,12′S,13′R,16′R,16a′R,18a′R,E)-6-chloro-5-fluoro-11′,12′-dimethyl-16′-(2-(4-methylpiperazin-1-yl)-2-oxoethoxy)-3,4,12′,13′,16′,16a′,17′,18′,18a′,19′-decahydro-1′H,2H,3′H, 11′H-spiro[naphthalene-1,2′-[5,7]etheno[13,15]methanocyclobuta[i][1,4]oxazepino[3,4-f][1]thia[2,7]diazacyclohexadecin]-8′(9′H)-one 10′,10′-dioxide]	14	–	–	35	81
CC(C)OC(=O)CO[C@H]1C2=C[C@@H](C2)[C@H](C)[C@@H](C)S(=O)(=O)NC(=O)c2ccc3c(c2)N(C[C@@H]2CC[C@H]21)C[C@@]1(CCCc2c1ccc(Cl)c2F)CO3 [compound 73, isopropyl 2-(((1S,11′R,12′S,13′R,16′R,16a′R,18a′R,E)-6-chloro-5-fluoro-11′,12′-dimethyl-10′,10′-dioxido-8′-oxo-3,4,8′,9′,12′,13′,16′,16a′,17′,18′,18a′,19′-dodecahydro-1′H,2H,3′H,11′H-spiro[naphthalene-1,2′-[5,7]etheno[13,15]methanocyclobuta[i][1,4]oxazepino[3,4-f][1]thia[2,7]diazacyclohexadecin]-16′-yl)oxy)acetate]	19	–	–	67	150
CO[C@@]1(CN2CCN(C)C(=O)C2)C2=C[C@@H](C2)[C@H](C)[C@@H](C)S(=O)(=O)NC(=O)c2ccc3c(c2)N(C[C@@H]2CC[C@H]21)C[C@@]1(CCCc2c1ccc(Cl)c2F)CO3 [compound 39, (1S,11′R,12′S,13′R,16′R,16a′R,18a′R,E)-6-chloro-5-fluoro-16′-methoxy-11′,12′-dimethyl-16′-((4-methyl-3-oxopiperazin-1-yl)methyl)-3,4,12′,13′,16′,16a′,17′,18′,18a′,19′-decahydro-1′H,2H,3′H, 11′H-spiro[naphthalene-1,2′-[5,7]etheno[13,15]methanocyclobuta[i][1,4]oxazepino[3,4-f][1]thia[2,7]diazacyclohexadecin]-8′(9′H)-one 10′,10′-dioxide]	14	–	–	62	7.7
CO[C@H]1C2=CC(CCS(=O)(=O)NC(=O)c3ccc4c(c3)N(C[C@@H]3CC[C@H]31)C[C@@]1(CCCc3cc(Cl)ccc31)CO4)C2 (single isomer, unassigned) [Cpd. No. 1 (Isomer 2)]	5.7	2430	1500	–	–
CO[C@H]1C2=CC(CCS(=O)(=O)NC(=O)c3ccc4c(c3)N(C[C@@H]3CC[C@H]31)C[C@@]1(CCCc3cc(Cl)ccc31)CO4)C2 (single isomer, unassigned) [Cpd. No. 1 (Isomer 1)]	6.8	547	360	–	–
C[C@@H]1[C@@H](C)S(=O)(=O)NC(=O)c2ccc3c(c2)N(C[C@@H]2CC[C@H]2[C@@H](OCC2CCN(C)CC2)C2=C[C@H]1C2)C[C@@]1(CCCc2c1ccc(Cl)c2F)CO3 [compound 71]	13	–	–	81	6
CO[C@H]1C2=C[C@@H](C2)[C@H](C)[C@@H](C)S(=O)(=O)NC(=O)c2ccc3c(c2)N(C[C@@H]2CC[C@H]21)C[C@@]1(CCCc2c1ccc(Cl)c2F)CS3 (single isomer, unassigned) [22 (isomer 1)]	13	–	–	567	700
CO[C@@]1(CN2CCN(C3CCOCC3)CC2)C2=C[C@@H](C2)[C@H](C)[C@@H](C)S(=O)(=O)NC(=O)c2ccc3c(c2)N(C[C@@H]2CC[C@H]21)C[C@@]1(CCCc2c1ccc(Cl)c2F)CO3 [compound 36]	13	–	–	35	4.4
C[C@@H]1[C@@H](C)S(=O)(=O)NC(=O)c2ccc3c(c2)N(C[C@@H]2CC[C@H]2[C@@H](OCCN2CCN(C)CC2=O)C2=C[C@H]1C2)C[C@@]1(CCCc2c1ccc(Cl)c2F)CO3 [compound 91, (1S,11′R,12′S,13′R,16′R,16a′R,18a′R)-6-chloro-5-fluoro-11′,12′-dimethyl-16′-(2-(4-methyl-2-oxopiperazin-1-yl)ethoxy)-3,4,12′,13′,16′,16a′,17′,18′,18a′,19′-decahydro-1′H,2H,3′H,11′H-spiro[naphthalene-1,2′-[5,7]etheno[13,15]methanocyclobuta[i][1,4]oxazepino[3,4-f][1]thia[2,7]diazacyclohexadecin]-8′(9′H)-one 10′,10′-dioxide]	15	–	–	59	16
COCCO[C@H]1C2=C[C@@H](C2)[C@H](C)[C@@H](C)S(=O)(=O)NC(=O)c2ccc3c(c2)N(C[C@@H]2CC[C@H]21)C[C@@]1(CCCc2c1ccc(Cl)c2F)CO3 [compound 60, (1S,11′R,12′S,13′R,16′R,16a′R,18a′R,E)-6-chloro-5-fluoro-16′-(2-methoxyethoxy)-11′,12′-dimethyl-3,4,12′,13′,16′,16a′,17′,18′,18a′,19′-decahydro-1′H,2H,3′H,11′H-spiro[naphthalene-1,2′-[5,7]etheno[13,15]methanocyclobuta[i][1,4]oxazepino[3,4-f][1]thia[2,7]diazacyclohexadecin]-8′(9′H)-one 10′,10′-dioxide]	15	–	–	66	19
C[C@@H]1[C@@H](C)S(=O)(=O)NC(=O)c2ccc3c(c2)N(C[C@@H]2CC[C@H]2[C@@H](OCCN2CCNCC2)C2=C[C@H]1C2)C[C@@]1(CCCc2c1ccc(Cl)c2F)CO3 [compound 65, (1S,11′R,12′S,13′R,16′R,16a′R,18a′R,E)-6-chloro-5-fluoro-11′,12′-dimethyl-16′-(2-(piperazin-1-yl)ethoxy)-3,4,12′,13′,16′,16a′,17′,18′,18a′,19′-decahydro-1′H,2H,3′H, 11′H-spiro[naphthalene-1,2′-[5,7]etheno[13,15]methanocyclobuta[i][1,4]oxazepino[3,4-f][1]thia[2,7]diazacyclohexadecin]-8′(9′H)-one 10′,10′-dioxide]	15	–	–	247	210
CO[C@H]1C2=CC(C2)C(C)(C)CS(=O)(=O)NC(=O)c2ccc3c(c2)N(C[C@@H]2CC[C@H]21)C[C@@]1(CCCc2cc(Cl)ccc21)CO3 (single isomer, unassigned) [Cpd. No. 5 (Isomer 1)]	4.8	411	120	–	–
CO[C@@H]1C2=CC(C2)CC(C)S(=O)(=O)NC(=O)c2ccc3c(c2)N(C[C@@H]2CC[C@H]21)C[C@@]1(CCCc2cc(Cl)ccc21)CO3 (single isomer, unassigned) [7 (Isomer 1)]	4.2	1120	600	–	–
CO[C@H]1C2=C[C@H](C2)[C@H](C)N(C[C@H]2CCCO2)S(=O)(=O)NC(=O)c2ccc3c(c2)N(C[C@@H]2CC[C@H]21)C[C@@]1(CCCc2cc(Cl)ccc21)CO3 (single isomer, unassigned) [30 (isomer 2)]	5.1	–	–	4770	4700
